Source: patent US20110300147A9, “Inhibiting tumor cell invasion, metastasis and angiogenesis” (The Scripps Research institute, priority 2005, published 2011)

What was measured:
[1] = cytotoxicity of AEPI-1 in wild type 293 cells; type: cell-based, human; details: human, wild type 293 cells
Protocol: (§1) To further evaluate the role of asparaginyl endopeptidases in angiogenesis, four asparaginyl endopeptidases inhibitors (AEPI) were tested using recombinant legumain in an amidolytic activity assay with fluorescent substrate. FIG. 4A graphically illustrates the effects that AEPI-1 to AEPI-4 (also referred to as legumain inhibitors LI-1 to LI-4) have on asparaginyl endopeptidase activity. […] No apparent cytotoxicity was observed until almost 100 μM AEPI-1 was used in these assays (FIG. 4B).

wild type 293 cells = test: cytotoxicity of AEPI-1 in wild type 293 cells; type: cell-based, human; details: wild type and legumain-expressing 293 cells
Protocol: as §1

[2] = cytotoxicity of AEPI-1 in 293 cells expressing legumain; type: cell-based; details: human, 293 cells recombinantly expressing legumain; 293 cells that recombinantly expressed legumain
Protocol: as §1

HUVEC = test: matrigel endothelial cell tube formation assay; type: cell-based, human
Protocol: The effect of AEPI-1 on endothelial cell function was assessed in vitro in a matrigel endothelial cell tube formation assay. […] In contrast, addition of recombinant legumain dramatically promoted and accelerated tube formation (FIG. 4D). HUVEC tube formation was observed as early as 5 hours after assay initiation when legumain was added. Under normal conditions 24 hours were required for the vascular tubes to form.

[3] = system: mouse aorta vessel sprouts; test: mouse aortic sprouting assay; type: cell-based
Protocol: The effects of AEPI-1 on angiogenesis were further evaluated in mouse aortic sprouting assays. First, AEPI-1 was added to the beginning of the experiment to determine its effect on initiation of vessel sprouts (FIG. 5A). […] In the second assay, AEPI-1 was added at the third day after aortic sprouts were already formed (FIG. 5B), to ascertain whether asparaginyl endopeptidase activity was required for continued extension of vessel growth.

[4] = system: angiogenesis in Matrigel plugs; test: Matrigel plug angiogenesis assay in vivo; parameters: species or system Balb C nu/nu mice
Protocol: The effect of AEPI-1 on angiogenesis was further investigated in vivo using a Matrigel plug assay. Matrigel containing FGF-2 was injected subcutaneously into Balb C nu/nu mice.
The effect of AEPI-1 on angiogenesis induced by cancer cells was then investigated by including human breast cancer cells (MDA-MB-231 cells) in the Matrigel plugs. The cancer cells produced a spectrum of angiogenic factors and induced robust angiogenic vessel growth (FIG. 5C).

MDA-MB-231 cells = test: MDA-MB-231 human mammary carcinoma model; type: in vivo, Balb C nu/nu mice; details: two weeks after tumor cell implantation
Protocol: The effect of AEPI-1 on tumor growth and invasion was then evaluated in a human mammary carcinoma model established in Balb C nu/nu mice. The MDA-MB-231 cells grew aggressively in vivo and formed a tumor that was similar to a human infiltrating ductal carcinoma with apparent glandular differentiation. The tumor locally invaded surrounding tissues and skeletal muscles.

4T1 mammary carcinoma = test: primary 4T1 tumor and spontaneous lung metastasis model; type: in vivo, BALB/c mice; details: AEPI-1 50 μg i.p. every two days for two weeks
Protocol: Primary 4T1 tumors are generated by subcutaneous injection of 5×10^5 4T1 cells in the right flank of six-week-old BALB/c mice. Two different groups of four animals were treated between days 9 and 27 after tumor induction. The treatments were 100-μl […] injections of PBS alone (control group) or LEG-3 100 μg/100 μl in PBS by intraperitoneal injection every two days for two weeks. Tumor volumes of treated animals were measured every two-day starting on day 9 by microcaliper measurements (volume=width×length×width/2). As soon as the tumor volume reached 1400 mm^3 in the control groups (on day 30th), euthanasia was performed and lungs were removed and fixed in the Bouin's solution. Lung metastases were counted by anatomy microscope. Statistical significance between treatment groups was determined by two-tailed Student's t tests using Microsoft EXCEL software.
Tumor induction was performed by subcutaneous injection of 5×10^5 4T1 cells in the right flank mammary fat pat of six-week-old BALB/c mice. […] Tumor volumes of treated animals were measured everyday starting on day 6 by micro-caliper measurements (volume=width×length×width/2). […] Lung metastases were counted by anatomy microscope. The statistical significance between treatment and control groups was determined by two-tailed Student's t tests using Microsoft EXCEL software.

breast cancer cells = test: hypoxia induced breast cancer cell migration in vitro; type: cell-based
legumain = target: T1, legumain (Mus musculus, UniProt O89017); test: legumain activity in tissues after systemic administration of AEPI-1; type: in vivo, mice
T1 construct: from tissue
T1 sequence (O89017 18-325): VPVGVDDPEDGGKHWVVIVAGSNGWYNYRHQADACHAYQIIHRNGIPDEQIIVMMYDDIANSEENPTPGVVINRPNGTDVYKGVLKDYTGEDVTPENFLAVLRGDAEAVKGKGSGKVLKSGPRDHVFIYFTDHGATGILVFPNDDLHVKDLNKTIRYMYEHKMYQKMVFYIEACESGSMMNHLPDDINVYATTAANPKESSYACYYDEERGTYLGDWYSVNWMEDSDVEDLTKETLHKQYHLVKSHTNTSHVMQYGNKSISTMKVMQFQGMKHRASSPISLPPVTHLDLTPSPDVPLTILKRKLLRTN

[5] = target: legumain cleavage of caspase 9 (Homo sapiens, UniProt Q99538); test: caspase 9 activity after legumain cleavage; type: biochemical
Sequence of legumain cleavage of caspase 9 (Q99538 18-323, species assumed): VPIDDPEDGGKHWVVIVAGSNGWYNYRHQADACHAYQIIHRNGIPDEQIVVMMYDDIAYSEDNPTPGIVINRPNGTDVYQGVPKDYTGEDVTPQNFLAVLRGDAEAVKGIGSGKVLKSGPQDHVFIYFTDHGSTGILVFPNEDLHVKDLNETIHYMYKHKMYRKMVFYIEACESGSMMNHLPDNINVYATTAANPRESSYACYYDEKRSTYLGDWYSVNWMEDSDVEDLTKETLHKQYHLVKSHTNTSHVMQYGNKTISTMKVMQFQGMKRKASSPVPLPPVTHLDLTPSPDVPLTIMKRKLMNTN
Excerpt: Legumain catalytically inactivates caspase 9. In addition to suppression of cathepsin B, legumain efficiently inactivates caspase 9 and depletes the cell of pro-caspase 9 (FIG. 20A). […] Loss of pro-caspase 9 led to reduced caspase 3 activation in a reconstituted apoptosome system (FIG. 20D), which was further confirmed by detection of reduced caspase 3 activity (FIG. 20E). These observations indicate that asparaginyl endopeptidases play a critical role in cell survival and tumorigenesis.

cell permeability (legumain; inferred from tumor vs kidney legumain activity): substantially impermeable to cells
legumain activity in kidney (legumain; systemic administration): does not affect
loss of caspase 9 activity caused by legumain cleavage [5]: inhibited
Structure (SMILES): CCOC(=O)C1OC1C(=O)N(CC(N)=O)NC(=O)[C@H](C)NC(=O)[C@H](C)NC(=O)OCc1ccccc1 (stereo partly drawn) [AEPI-1, Cbz-Ala-Ala-AzaAsn-(S,S)-EPCOOEt]
CC50 [1]: 320 µM
concentration until which no apparent cytotoxicity was observed (wild type 293 cells): ~100 µM
CC50 [2]: 430 µM
concentration at which inhibition of tube formation was apparent (HUVEC; HUVEC, matrigel): 100 nM
concentration at which tube formation was completely inhibited (HUVEC; HUVEC, matrigel): 600 nM
hypoxia induced tube formation (HUVEC; hypoxic conditions): inhibited
HUVEC tube formation (HUVEC; matrigel, normal conditions): suppressed HUVEC tube formation in a dose dependent manner
FGF-2 induced vessel sprouts (initiation) ([3]; AEPI-1 added at the beginning of the experiment): inhibited FGF-2 induced vessel sprouts in a dose dependent manner
extension of established vascular outgrowth ([3]; AEPI-1 added at the third day after aortic sprouts were formed): significantly reduced
cancer cell-induced angiogenesis in the plug ([4]; MDA-MB-231 cells in the Matrigel plugs): essentially completely inhibited
FGF-2 induced vessel formation in the plug ([4]; Matrigel containing FGF-2 s.c., gross appearance, hemoglobin content, histology): significantly inhibited
tumor differentiation into a more invasive form (MDA-MB-231 cells): blocked
tumor growth (MDA-MB-231 cells): completely suppressed tumor growth
growth of 4T1 mammary carcinoma (4T1 mammary carcinoma): inhibits the growth
spontaneous lung metastasis (4T1 mammary carcinoma): inhibited spontaneous lung metastasis
hypoxia induced breast cancer cell migration (breast cancer cells): inhibited
legumain activity in 4T1 tumors (legumain; systemic administration): inhibited legumain activity in 4T1 tumors
